Literature values as cited in patent US20210181185A1, “DENDRITIC CELL RECRUITMENT FROM BLOOD TO BRAIN IN NEURODEGENERATIVE DISEASE” (priority 2017, published 2021).

Conditions: free DiO

CCCCCCCCCCCCCCCCCCN1/C(=C\C=C\c2oc3ccccc3[n+]2CCCCCCCCCCCCCCCCCC)Oc2ccccc21.[O-][Cl+3]([O-])([O-])[O-] [DiO]
Clearance of free dye from blood: rapidly cleared from blood
